Reference: US20240336573A1, “COMPOUND FOR THE TREATMENT AND PROPHYLAXIS OF INFECTIOUS DISEASES” (Eberhard Karls Universität Tübingen Medizinische Fakultät, priority 2021, published 2024)
Like-named read-outs stand apart in the source and are kept apart here.

What was measured:
SurA [1] = molecular target: T1, SurA (Escherichia coli, UniProt P0ABZ6); assay: Microscale thermophoresis at the ELF (O1); assay type: binding, E. coli; design: key to MST score: 1 = binder; 6 = non-binder; conditions: for MST score: score 1-6
T1 sequence (P0ABZ6 21-428): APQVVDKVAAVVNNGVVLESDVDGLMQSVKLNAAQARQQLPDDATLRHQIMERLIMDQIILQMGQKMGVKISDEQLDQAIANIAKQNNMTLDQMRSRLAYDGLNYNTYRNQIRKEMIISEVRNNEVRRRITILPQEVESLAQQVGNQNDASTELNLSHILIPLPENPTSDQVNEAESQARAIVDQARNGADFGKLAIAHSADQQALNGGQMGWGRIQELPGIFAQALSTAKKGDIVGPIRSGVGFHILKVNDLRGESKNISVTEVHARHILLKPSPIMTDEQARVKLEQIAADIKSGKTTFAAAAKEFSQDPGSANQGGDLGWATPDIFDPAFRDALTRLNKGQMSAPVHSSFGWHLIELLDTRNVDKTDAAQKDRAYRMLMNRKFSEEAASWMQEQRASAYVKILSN
Experimental: (§1) His-tagged SurA was labeled with the Monolith His-Tag Labeling Kit RED-tris-NTA (Nanotemper) according to the manufacturer's instructions.
Microscale thermophoresis measurements at the ELF were performed as follows. Compounds were tested in 8-point curves at a top starting concentration of 100-0.39 μM. […] 12-point dose responses of reference compound were also set up and tested between runs. Final measurement conditions were 40 mM HEPES pH 7.4, 0.1% Pluronic-F127, 50 nM SurA with Monolith settings—40% excitation and 60% MST power. MST data (capillary scan and shape, initial fluorescence and MST traces) were analyzed and a score was given to each compound.

SurA [2] = molecular target: T1, SurA; assay: nanoDSF of QHL compounds (Tycho); assay type: binding, E. coli; design: key: An increase of the inflection points in the nanoDSF experiments is indicated by (+); a decrease by (−); no changes with (none); ambiguity with a question mark (?); conditions: re-evaluation; 100 μM compound, 2 μM SurA, 40 mM HEPES pH 7.4
Experimental: Nano Differential Scanning Fluorimetry (nanoDSF) measurements of the QHL (qualified hit list) compounds provided by the ELF were performed on a Tycho system (NanoTemper).

SurA [3] = molecular target: T1, SurA; assay: Microscale thermophoresis (Tuebingen, Monolith NT.115); assay type: binding, E. coli; conditions: for MST score (Re-evaluation Tuebingen): re-evaluation of QHL compound remainders
Experimental: as §1
Microscale thermophoresis measurements were performed in 40 mM HEPES pH 7.4, 0.05% Tween-20 at 25° C. with a Monolith NT.115 (NanoTemper) in standard capillaries.

SurA [4] = molecular target: T1, SurA; assay: nanoDSF thermal shift assay (Prometheus); assay type: binding, E. coli; design: key to nanoDSF pH 5 Ti#1 / nanoDSF pH 5 Ti#2 / nanoDSF pH 7.4 Ti#1 / nanoDSF pH 7.4 Ti#2: An increase of the inflection points in the nanoDSF experiments is indicated by (+); a decrease by (−); no changes with (none); ambiguity with a question mark (?); conditions: for nanoDSF pH 7.4 Ti#1 / nanoDSF pH 7.4 Ti#2: 40 mM HEPES pH 7.4, 150 NaCl; for nanoDSF pH 5 Ti#1 / nanoDSF pH 5 Ti#2: 50 mM HAc pH 5; for Thermal stability of SurA as detected by nanoDSF: resynthesized compounds
Experimental: To this end, 5 μl of a 2 mM compound solution in DMSO were mixed with 95 μl of a 20 μM SurA solution. Technical triplicate measurements were performed on a Prometheus system (NanoTemper).

HepG2 cells = assay: Cytotoxicity assay (LDH release); assay type: cell-based; conditions: 500 μM compound, 1 h at 37° C., some cells also say precipitate
Experimental: Cell cytotoxicity of shelf derivatives was evaluated monitoring the LDH release from HepG2 cells using the CytoTox 96@ Non-Radio Cytotoxicity Assay (Promega) according to the manufacturer's instructions. […] After incubation, 25 μl were transferred into a fresh 96-well flat clear bottom plate and mixed with 25 μl CytoTox 96@ Reagent. LDH release reactions were incubated 30 min at RT in the dark and 25 μl Stop Solution were added. LDH release was measured at 490 nm in a multiplate reader.

luciferase = luciferase (Photinus pyralis, UniProt P08659); assay: Primary assay buffer control: interference with Luciferase per se; assay type: biochemical, firefly; design: key: no influence on Luc activity = 0; enhances Luc activity = +; reduces Luc activity = −
Chain of luciferase (P08659 whole entry): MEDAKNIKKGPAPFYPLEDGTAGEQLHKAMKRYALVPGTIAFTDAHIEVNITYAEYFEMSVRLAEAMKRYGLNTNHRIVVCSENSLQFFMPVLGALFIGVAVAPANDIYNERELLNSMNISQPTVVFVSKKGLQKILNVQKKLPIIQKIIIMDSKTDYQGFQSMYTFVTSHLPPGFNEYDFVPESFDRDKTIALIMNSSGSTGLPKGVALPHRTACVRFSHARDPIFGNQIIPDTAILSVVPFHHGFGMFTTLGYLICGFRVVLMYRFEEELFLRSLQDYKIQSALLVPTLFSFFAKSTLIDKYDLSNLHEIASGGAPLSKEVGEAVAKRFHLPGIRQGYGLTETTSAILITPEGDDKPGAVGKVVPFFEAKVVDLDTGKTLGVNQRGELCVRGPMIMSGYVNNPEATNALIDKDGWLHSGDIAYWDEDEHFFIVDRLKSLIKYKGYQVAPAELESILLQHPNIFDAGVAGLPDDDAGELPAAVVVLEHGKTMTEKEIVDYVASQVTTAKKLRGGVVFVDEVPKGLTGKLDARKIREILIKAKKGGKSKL
Experimental: In short, the Luciferase based SurA activity assay was performed in SurA Activity Assay Buffer (40 mM HEPES pH 7.4, 20 mM MgSO4, 0.5 g/I BSA). SurA aliquots were thawn at RT, activated by mild heat treatment and cooled down to RT for 10 min. SurA concentration was adjusted to 1.6 μM in Activity Assay Buffer (protein solution). Solution A containing 10 mM ATP as well as 0.3 mM Luciferin (Promega Beetle Luciferin, Potassium Salt) in water was prepared. Luciferase working solution was prepared by diluting 1 ml Luciferase working stock (100 nM) with 9 ml assay buffer. 33 μl of the protein solution were added to every 2nd row of a well of a 384-well PS, white, flat bottom plate. […] Subsequently, 2 μl of compound in DMSO were added in quadruplicates (4 wells each of protein solution and buffer controls). These compound solutions could contain either various compounds or different dilutions of the same compound allowing screening inhibitor activity in a dose dependent manner. After compound addition, plates were incubated 15 min at RT. After this incubation, 5 μl of Luciferase working solution were added to each well. […] Subsequently, the assay plate was cooled for 5 min at 4° C. followed by 10 min incubation at RT prior to luminescence measurement. Luminescence was measured in a TECAN infinite M200 pro plate reader for each well individually after injection of 10 μl Solution A.

In the case of CN(C)c1ccc(-c2nc3cc(NC(=O)Cn4cc5ccccc5n4)ccc3[nH]2)cc1 [QHL-24], the MST score (SurA [1]) is reported as 1, the “nanoDSF(Tycho) Ti#1” value (SurA [2]) is reported as “none” and the “nanoDSF(Tycho) Ti#2” value (SurA [2]) is reported as “+”. The “MST score (Re-evaluation Tuebingen)” value (SurA [3]) was “inconclusive”, the Kd (SurA [3]; read-out: MST (Kd in mM)) was 0.02 to 0.03 mM and the “MST (KD)” value (SurA [3]; resynthesized compounds) was “binding”. For the same compound, the Kd (SurA [3]; resynthesized compounds, read-out: MST (KD)) was 0.02 to 0.03 mM, the “nanoDSF pH 7.4 Ti#1” value (SurA [4]) was “none” and the “nanoDSF pH 7.4 Ti#2” value (SurA [4]) was “−”. For the same compound, the “nanoDSF pH 5 Ti#1” value (SurA [4]) was “none”, the “nanoDSF pH 5 Ti#2” value (SurA [4]) was “+” and the “Thermal stability of SurA as detected by nanoDSF” value (SurA [4]) was “affected the thermal stability of SurA”. For the same compound, the CytoTox (HepG2 cells) was “precipitate (7.87%)” and the “primary assay Luciferase” value (luciferase) was “−”.
In the case of NC(=O)c1nc(Cc2ccc(OCC(=O)O)cc2)[nH]c1NC(=O)c1ccc(-c2ccccc2)cc1 [Compound 2a, 2-(4-((5-([1,1′-biphenyl]-4-carboxamido)-4-carbamoyl-1H-imidazol-2-yl)methyl)phenoxy)acetic acid], the IC50 (SurA [1]; 8-point curves 100-0.39 μM, 50 nM SurA, read-out: MST pIC50 (converted)) is reported as 39.8 µM, the MST score (SurA [1]) is reported as 1 and the “nanoDSF(Tycho) Ti#1” value (SurA [2]) is reported as “?”. For the same compound, the “nanoDSF(Tycho) Ti#2” value (SurA [2]) was “+”, the “MST (Kd in mM)” value (SurA [3]) was “binding” and the “MST score (Re-evaluation Tuebingen)” value (SurA [3]) was 2. For the same compound, the “MST (KD)” value (SurA [3]; resynthesized compounds) was “binding”, the “nanoDSF pH 7.4 Ti#1” value (SurA [4]) was “none” and the “nanoDSF pH 7.4 Ti#2” value (SurA [4]) was “−”. For the same compound, the “nanoDSF pH 5 Ti#1” value (SurA [4]) was “+”, the “nanoDSF pH 5 Ti#2” value (SurA [4]) was “−” and the “Thermal stability of SurA as detected by nanoDSF” value (SurA [4]) was “affected the thermal stability of SurA”. The CytoTox (HepG2 cells) was 50.23% and the “primary assay Luciferase” value (luciferase) was “−”.
